Consider eight compounds from paper PMC3351444, “Molecular Evolution of a Peptide GPCR Ligand Driven by Artificial Neural Networks” (PLoS ONE, 2012).

As usually defined, the half-life is the time in which the quantity being followed falls by half. Usually EC50 stands for the concentration at which the effect is half-maximal.

The nature of data set [1]: In vitro peptide stability in human serum (RP-HPLC). The settings on record: human, human serum, 25% (v/v) in RPMI.
A further data set concerns the target T1, human CMKLR1 (Homo sapiens, UniProt Q99788).
T1 construct: host or cells: HEK293A (Invitrogen), stably expressing human Gα15
T1 sequence (Q99788 1-373): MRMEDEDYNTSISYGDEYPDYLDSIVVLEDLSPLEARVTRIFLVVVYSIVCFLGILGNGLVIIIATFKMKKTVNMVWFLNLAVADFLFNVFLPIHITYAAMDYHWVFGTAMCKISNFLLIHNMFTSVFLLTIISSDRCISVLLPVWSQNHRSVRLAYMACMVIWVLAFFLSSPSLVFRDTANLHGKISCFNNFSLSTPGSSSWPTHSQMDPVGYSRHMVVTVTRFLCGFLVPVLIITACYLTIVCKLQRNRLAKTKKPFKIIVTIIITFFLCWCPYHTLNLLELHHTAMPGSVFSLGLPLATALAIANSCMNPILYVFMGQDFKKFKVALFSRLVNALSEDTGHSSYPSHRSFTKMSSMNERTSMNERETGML
Put plainly: Ca2+ mobilization (CellLux imaging) agonist assay in HEK293A cells expressing CMKLR1 and Gα15. In kind it is cell-based. The settings on record: Ca2+ mobilization, CMKLR1, decimal comma; for EC50: NR where no EC50 is given, read-out: EC50. The gist of the method: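 HEK293A cells co-expressing CMKLR1 and Gα15 were loaded with FLUO4-AM, and peptides were added robotically in C1 buffer (HEPES pH 7.4, 2 mM CaCl2) with 0.1% BSA. Fluorescence changes were read in duplicate wells, buffer-subtracted and normalized to background. EC50 came from amplitude–concentration plots.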

Square brackets hold non-standard residues; d marks the D form. Peptide text beside a SMILES is read from it.

Take `CC(C)C[C@H](NC(=O)[C@@H](N)Cc1ccc(O)cc1)C(=O)N1CCC[C@H]1C(=O)N[C@H](Cc1c[nH]c2ccccc12)C(=O)N[C@@H](CCC(N)=O)C(=O)N[C@@H](Cc1ccc(O)cc1)C(=O)N[C@@H](C)C(=O)N[C@@H](Cc1ccccc1)C(=O)N[C@H](Cc1ccccc1)C(=O)O` [compound 127] (H-YLP[dW]QYAF[dF]-OH; N-terminus assumed): the half-life at 50 µg/mL in data set [1] amounted to 2.07 h. Besides, on human CMKLR1, the max response is on record as 1,52 DF/F0 and the concentration giving a half-maximal response (EC50) amounted to 35.6 nM.

`CC(C)C[C@H](N)C(=O)N[C@H](Cc1c[nH]c2ccccc12)C(=O)NCC(=O)NCC(=O)N1CCC[C@H]1C(=O)N[C@@H](Cc1ccc(O)cc1)C(=O)N[C@H](Cc1c[nH]c2ccccc12)C(=O)N[C@@H](Cc1ccc(O)cc1)C(=O)N[C@H](CO)C(=O)O` [compound 128] (H-L[dW]GGPY[dW]Y[dS]-OH; N-terminus assumed) showed a half-life at 50 µg/mL in data set [1] of 8 h. On human CMKLR1, the max response was 1,45 DF/F0 and the EC50 is 38.7 nM.

In turn, `CC(C)C[C@@H](NC(=O)[C@H](CCCNC(=N)N)NC(=O)[C@@H](N)Cc1ccc(O)cc1)C(=O)NCC(=O)N[C@@H](CCC(N)=O)C(=O)N[C@@H](Cc1ccc(O)cc1)C(=O)N[C@H](Cc1c[nH]c2ccccc12)C(=O)N[C@H](CC(=O)O)C(=O)N[C@H](Cc1ccccc1)C(=O)O` [compound 129] (H-YR[dL]GQY[dW][dD][dF]-OH; N-terminus assumed) came in with a half-life at 50 µg/mL in data set [1] of 0.533 h. At human CMKLR1, the max response was 1,1 DF/F0 and the EC50 amounted to 41.7 nM.

In data set [1], `CC(C)C[C@H](NC(=O)[C@@H](N)Cc1ccc(O)cc1)C(=O)N1CCC[C@H]1C(=O)N1CCC[C@@H]1C(=O)N1CCC[C@H]1C(=O)N[C@@H](Cc1ccc(O)cc1)C(=O)N[C@@H](C)C(=O)N[C@@H](Cc1ccccc1)C(=O)N[C@H](Cc1ccccc1)C(=O)O` [compound 130] (H-YLP[dP]PYAF[dF]-OH; N-terminus assumed) yielded a half-life at 50 µg/mL of 3.58 h. Besides, at human CMKLR1, the max response is on record as 1,72 DF/F0 and the EC50 is 43.5 nM.

As to `CC(C)C[C@H](N)C(=O)N[C@H](Cc1c[nH]c2ccccc12)C(=O)NCC(=O)NCC(=O)N1CCC[C@H]1C(=O)N[C@@H](Cc1ccc(O)cc1)C(=O)N[C@@H](C)C(=O)N[C@H](CC(=O)O)C(=O)N[C@@H](CO)C(=O)O` [compound 131] (H-L[dW]GGPYA[dD]S-OH; N-terminus assumed), the half-life at 50 µg/mL in data set [1] was found to be 9.18 h. Moreover, at human CMKLR1, the max response is 1,67 DF/F0 and the concentration for a half-maximal effect (EC50) is 53.2 nM.

In the case of `CC(C)C[C@H](NC(=O)CN)C(=O)N[C@@H](CCC(N)=O)C(=O)N[C@H](CCC(N)=O)C(=O)N[C@@H](Cc1ccccc1)C(=O)N[C@@H](Cc1ccc(O)cc1)C(=O)N[C@H](Cc1c[nH]c2ccccc12)C(=O)NCC(=O)N[C@H](Cc1ccccc1)C(=O)O` [compound 132] (H-GLQ[dQ]FY[dW]G[dF]-OH; N-terminus assumed), the half-life at 50 µg/mL in data set [1] amounted to 1.95 h. For the same compound, on human CMKLR1, the max response is listed as 1,82 DF/F0 and the 50% effective concentration (EC50) turned out to be 55.7 nM.

The compound `NC(=O)CC[C@H](NC(=O)CNC(=O)[C@@H]1CCCN1C(=O)[C@H](Cc1ccccc1)NC(=O)[C@H](N)Cc1ccc(O)cc1)C(=O)N[C@@H](Cc1ccc(O)cc1)C(=O)N[C@H](Cc1c[nH]c2ccccc12)C(=O)N[C@@H](Cc1ccccc1)C(=O)N[C@H](Cc1ccccc1)C(=O)O` [compound 133] (H-[dY]FPGQY[dW]F[dF]-OH; N-terminus assumed) returned a half-life at 50 µg/mL in data set [1] of 0.333 h. In addition, on human CMKLR1, the max response was 1,62 DF/F0 and the EC50 stood at 67.4 nM.

In data set [1], `C[C@H](N)C(=O)N[C@@H](Cc1ccccc1)C(=O)NCC(=O)N[C@H](Cc1ccccc1)C(=O)N[C@H](CCC(N)=O)C(=O)N[C@@H](CO)C(=O)N[C@@H](C)C(=O)N[C@@H](Cc1ccc(O)cc1)C(=O)N[C@@H](CO)C(=O)O` [compound 134] (H-AFG[dF][dQ]SAYS-OH; N-terminus assumed) had a half-life at 50 µg/mL of 0.167 h. Also, at human CMKLR1, the max response is 1,37 DF/F0 and the EC50 is 69.4 nM.
